This passage reports water solubility and pH results from patent US7825245B2, “Substituted 4-anilinoquinazolines and their use in tumor treatment” (priority 2005, dated 2010).

The nature of data set [1]: water solubility of the isolated product. It counts as physicochemical. The note with it: isolated white powder.
Data set [2] is described as follows: pH of the isolated product. The class given is physicochemical. To be noted: isolated white powder.

On to `C#CC1CCN(Nc2c(OC)cc3ncnc(N(C)c4ccc(C)cc4)c3c2CC)CC1` [III-1], for which the water solubility result in data set [1] is reported as “water-soluble”. In data set [2], the pH is listed as 6.4.

Take `C=CC1CCN(Sc2cc3c(N(C)c4ccc(CC)cc4)ncnc3c(C)c2OCCC)CC1` [Compound V-1]: the water solubility result in data set [1] is given as “water-soluble”. For the same molecule, the pH in data set [2] is reported as 6.4.

As to `C=CC1CCN(C(=O)Oc2cc3c(N(C)c4ccc(CC)cc4)ncnc3c(C)c2OCC)CC1` [II-1], the water solubility entry in data set [1] is “water-soluble”. Besides, the pH in data set [2] came to 6.4.
